From ChEMBL document CHEMBL1154446, “Synthesis and preliminary biological evaluation of new carbon-11 labeled tetrahydroisoquinoline derivatives as SERM radioligands for PET imaging of ER expression in breast cancer” (Eur J Med Chem, 2008) come the findings set out here.

Each structure is given as a SMILES string. Activity calls are given as the source filed them. The rule behind the calls is not given here.

Common to all, as to format: functional, cell-based
Assay [1] has as its system MCF7. The assay can be described thus: Antiproliferative activity against human MCF7 cells at >0.625 to 10 nM after 24 hrs by MTS assay. Background: Formazan colour is commonly taken as a measure of viable cells.
Assay [2] relates to MCF7. As to the kind of experiment: Antiproliferative activity against human MCF7 cells at 0.3125 to 0.625 nM after 24 hrs by MTS assay.
Assay [3] relates to MCF7. As to the kind of experiment: Antiproliferative activity against human MCF7 cells at 0.625 nM after 24 hrs by MTS assay.

Consider `COC(=O)C1CCN(CCOc2ccc(C3(C)c4ccc(O)cc4CCN3c3ccc(Cl)cc3)cc2)CC1` (stereo unspecified), for which the result in the assay with MCF7 [1] and with MCF7 [2] was Active.
Turning to `COC(=O)C1CCN(CCOc2ccc(C3(C)c4ccc(O)cc4CCN3c3ccc(F)cc3)cc2)CC1` (stereo unspecified), in the assay with MCF7 [3], the result was inactive. In the assay on MCF7 [1], the result was Active.
For `CCC(=C(c1ccc(O)cc1)c1ccc(OCCN(C)C)cc1)c1ccccc1` the same measures were “Active” and “Active”.
